Test results: article PMC6155852, “Oral Administration of the Japanese Traditional Medicine Keishibukuryogan-ka-yokuinin Decreases Reactive Oxygen Metabolites in Rat Plasma: Identification of Chemical Constituents Contributing to Antioxidant Activity” (Molecules : A Journal of Synthetic Chemistry and Natural …, 2017)
Several values for one entry are separate records, joined by “and”; a condition that tells them apart may be missing. Equal entries are not always repeated. Where two headings read alike, the source gives them in different places.

Key:
[1] = ROS scavenging assay (hydrogen peroxide-dependent oxidation); assay type: biochemical; conditions: for IC50: concentration-dependency, Figure 4
Experimental: Hydrogen peroxide-dependent oxidation tests were performed using Oxiselect™ In Vitro ROS/RNS Assay kits (Cellbiolab Inc., San Diego, CA, USA) according to the manufacturer’s protocol. Briefly, a test sample was mixed with hydrogen peroxide (final concentration: 2.5 μmol/L) and incubated for 5 min. A fluorescent reaction was started by the addition of a fluorescent probe (dichrolodihydrofluorescin-DiOxyQ) at room temperature. After incubation for 15 min, relative fluorescent units (RFUs) were measured at […] using a fluorescent plate reader (Infinite M200; Tecan Trading AG, Männedorf, Switzerland). The percentage of control was calculated using the following formula; (A − B)/(C − B) × 100, with A = test sample, B = fluorescent probe alone, and C = vehicle control. (+)-Ascorbic acid was used as a reference agent.

[2] = Plasma pharmacokinetics of KBGY constituents in rats after single oral administration of KBGY; assay type: in vivo, rat
Experimental: KBGY prepared in water was administered orally to 16 h fasted rats at a dose of 2 g/10 mL/kg (n = 3). […] Plasma was obtained by centrifugation at 1700× g for 15 min at 4 °C and stored at −80 °C until analysis.
For quantification of the dicarboxylic acid, 50 µL of standard solution, 100 µL of acetic acid (2%, v/v), and 650 µL of ethyl acetate were added to 200 µL of plasma samples, followed by mixing and centrifugation (7000× g, 5 min). The supernatants were collected and dried with a centrifugal evaporator and concentration system (CC-105; TOMY SEIKO Co., Tokyo, Japan). The residue was dissolved with 100 µL acetonitrile and 50 µL BF3/butanol solution; the dissolved solution was incubated for 1 h at 60 °C. The reaction was terminated by the addition of 50 µL of water and hexane, 150 µL of a saturated solution of sodium chloride, and 400 µL of hexane. The solution was vortexed for 2 min, and the supernatant was obtained by centrifugation (7000× g, 5 min). Liquid–liquid extraction was repeated twice. The corrected supernatant was dried with the centrifugal evaporator and concentration system. The dried residue was dissolved in 100 µL of acetonitrile containing 1 µg/mL of o-terphenyl (Tokyo Chemical Ind. Co.) as an internal standard (IS). Five microliters of the solution was then injected into the GC/MS system.
For quantification of volatile organic compounds (cinnamaldehyde, methyl cinnamate, 2-methoxycinnamaldehyde, mandelonitrile, salicylaldehyde, eugenol, cinnamyl alcohol, and 3-phenylpropyl acetate), 25 µL of standard solution, 25 µL of 2 µg/mL of 1,4-dibromobenzene (Tokyo Chemical Ind. Co.) as IS, and 500 µL of acetonitrile were added to 200 µL of plasma samples, followed by mixing and centrifugation (7000× g, 5 min). Five microliters of the supernatant was then injected into the GC/MS system.
For quantification of other compounds, 25 µL of standard solution, 25 µL of 2 ng/mL of atropine sulfate monohydrate (Wako Pure Chemical Ind.) or niflumic acid (Sigma-Aldrich) as IS, and 750 µL of methanol were added to 200 µL of plasma samples, followed by mixing and centrifugation (7000× g, 5 min). The supernatant was obtained and dried with the centrifugal evaporator and concentration system after 150 µL of propylene glycol (1%, v/v) was added to the supernatant. The dried residue was then dissolved in 60 μL of the HPLC mobile phase for each analytical method, and a 10 or 20 μL portion was injected into the LC/MS/MS system.
Plasma pharmacokinetic data were analyzed by noncompartmental modeling using Phoenix WinNonlin (version 6.3, Certara L.P., St. Louis, MO, USA) to determine various pharmacokinetic constants, including the maximum concentration (Cmax), time to maximum concentration (tmax), apparent elimination half-life (t1/2), and area under the plasma concentration-time curve from zero to last observation time (AUC0–last). The t1/2 was divided by loge^2/ke, where ke was the terminal elimination (at least three data points on the descending linear limb) rate constant.

[3] = Lipid hydroperoxide (LPO) generation assay (linoleic acid, Fenton reaction); assay type: biochemical
Experimental: Antioxidant assays using linoleic acid with a purity of 98.0% (Wako Pure Chemical Ind.) were performed using a described protocol with modifications. Briefly, 20 μL of 1% linoleic acid in methanol, 20 μL of 20 mmol/L ferrous chloride in water, 20 μL of test sample in DMSO, and 150 μL of a mixed solution (1:1) of methanol and 20 mmol/L phosphate buffer (pH 7.0) were added to 96-well polypropylene plates. After incubation at room temperature in the dark for 1 h, 10 μL of the reaction products were transferred to 200 μL of a methanol solution containing 39 mmol/L ammonium thiocyanate, 0.2 mmol/L ferrous chloride, and 0.01 mol/L hydrochloride. After incubation for 15 min, absorbance at 500 nm was measured using a microplate reader (Multiskan GO, Thermo Fisher Scientific Inc., Waltham, MA, USA). The concentration of lipid hydroperoxide (LPO) products was calculated conveniently using standard curves of serially-diluted linolein hydroperoxides (Cayman Chemical). The percentage of control was calculated using the following formula; (A − B)/(C − B) × 100, with A = test sample, B = linoleic acid alone, and C = vehicle control. Ascorbic acid was used as a reference agent.

[4] = 1 μmol/L, C.I. = complete inhibition
[5] = 10 μmol/L, C.I. = complete inhibition, more than 100% = no activity
[6] = 10 μmol/L, more than 100% = no activity
[7] = in vivo, rat plasma, single oral KBGY 2 g/kg, read-out: AUC0–last
[8] = in vivo, rat plasma, single oral KBGY 2 g/kg, read-out: Cmax
[9] = in vivo, rat plasma, single oral KBGY 2 g/kg, read-out: t1/2 (converted)
[10] = in vivo, rat plasma, single oral KBGY 2 g/kg, read-out: tmax
[11] = rat plasma, single oral KBGY 2 g/kg

SMILES | Antioxidant Activity (% of Control) ROS Scavenge [1, 5] | Tmax ([2]; rat, in vivo, po, 2 g/kg) | Antioxidant Activity (% of Control) LPO Generation [3, 6] | AUC(0-t) ([2]; rat, in vivo, po, 2 g/kg) | Cmax ([2]; rat, in vivo, po, 2 g/kg) | other results
COc1cc([C@H]2OC[C@H]3[C@@H]2CO[C@@H]3c2cc(OC)c(O)c(OC)c2)cc(OC)c1O (racemic) [(±)-Syringaresinol] | C.I. | 0.25 h | 68.4 ± 3.3 % of Control |  |  | Antioxidant Activity (% of Control) ROS Scavenge [1, 4]: 39.4 ± 2.4 % of Control; anti-ROS activity ([1]; 10 μmol/L): strong anti-ROS activity; AUC0–last ([2]; rat, in vivo, po, 2 g/kg): 0.0771 ng·h/mL; Antioxidant Activity (% of Control) LPO Generation ([3]; 1 μmol/L): 107.4 ± 4.2 % of Control; Antioxidant Activity (% of Control) LPO Generation ([3]; 10 μmol/L, more than 100% = no activity, listed as (±)-syringaresinol): less than 80 % of Control
COc1cc(C[C@H]2CO[C@H](c3ccc(O)c(OC)c3)[C@H]2CO)ccc1O [Lariciresinol] | C.I. | 4 h | 79.5 ± 1.9 % of Control | 9.84 ng·h/mL | 1.68 ng/mL and 5 nM | Antioxidant Activity (% of Control) ROS Scavenge [1, 4]: C.I.; anti-ROS activity ([1]; 10 μmol/L): strong anti-ROS activity; IC50 [1]: 561 nM; Antioxidant Activity (% of Control) LPO Generation ([3]; 1 μmol/L): 98.3 ± 1.4 % of Control; Antioxidant Activity (% of Control) LPO Generation ([3]; 10 μmol/L, more than 100% = no activity, listed as lariciresinol): less than 80 % of Control
N#C[C@H](O[C@@H]1O[C@H](CO[C@@H]2O[C@H](CO)[C@@H](O)[C@H](O)[C@H]2O)[C@@H](O)[C@H](O)[C@H]1O)c1ccccc1 [Amygdalin] | 106.4 ± 0.5 % of Control |  | 102.0 ± 2.1 % of Control |  |  | AUC(0-t) [2, 7]: 79.9 ng·h/mL; Cmax [2, 8]: 37.7 ng/mL and 82 nM; half-life [2, 9]: 0.657 h; Tmax [2, 10]: 0.5 h
Oc1cc(O)c2c(c1)O[C@H](c1ccc(O)c(O)c1)[C@@H](O)C2 [(+)-Catechin] | 7.3 ± 1.1 % of Control | 2 h | 95.4 ± 3.9 % of Control |  |  | anti-ROS activity ([1]; 10 μmol/L): strong anti-ROS activity; IC50 [1]: 621 nM; AUC0–last ([2]; rat, in vivo, po, 2 g/kg): 65.1 ng·h/mL
N#C[C@H](O[C@@H]1O[C@H](CO)[C@@H](O)[C@H](O)[C@H]1O)c1ccccc1 [Prunasin] | 102.2 ± 1.1 % of Control |  | 97.9 ± 3.3 % of Control |  |  | AUC(0-t) [2, 7]: 3700 ng·h/mL; Cmax [2, 8]: 1450 ng/mL and 4.91 µM; half-life [2, 9]: 1.16 h; Tmax [2, 10]: 1 h
COc1c(O)cc(C(=O)O)cc1O [4-O-Methylgallic acid] | 86.8 ± 0.2 % of Control | 1 h | 105.4 ± 2.5 % of Control | 479 ng·h/mL | 159 ng/mL and 863 nM | half-life ([2]; rat, in vivo, po, 2 g/kg): 0.906 h
O=C/C=C/c1ccccc1 [Cinnamaldehyde] | 103.8 ± 1.1 % of Control | 1 h | 109.8 ± 3.9 % of Control | 51.6 ng·h/mL | 11.5 ng/mL and 87 nM | half-life ([2]; rat, in vivo, po, 2 g/kg): 5.21 h
C[C@]12C[C@@H](O)[C@@H]3C[C@@]1(O[C@@H]1O[C@H](CO)[C@@H](O)[C@H](O)[C@H]1O)[C@@]3(COC(=O)c1ccccc1)C(=O)O2 [Albiflorin] | 104.2 ± 1.1 % of Control |  | 101.6 ± 2.2 % of Control |  |  | AUC0–last [2, 11]: 64.9 ng·h/mL; Tmax [2, 11]: 0.5 h; t1/2 [2, 11]: 1.6 h
O=C(O)CCCCCCCC(=O)O [Azelaic acid] | 100.4 ± 0.7 % of Control | 0.25 h | 97.9 ± 4.4 % of Control | 39.9 ng·h/mL | 54.7 ng/mL and 291 nM | 
COc1cc(C(=O)O)cc(O)c1O [3-O-Methylgallic acid] | C.I. | 1 h |  | 58.6 ng·h/mL | 12.7 ng/mL and 69 nM | anti-ROS activity ([1]; 10 μmol/L): strong anti-ROS activity; IC50 [1]: 744 nM; half-life ([2]; rat, in vivo, po, 2 g/kg): 6.59 h
C=C(CC[C@@H](C(=O)O)[C@H]1[C@H](O)C[C@@]2(C)C3=C(CC[C@]12C)[C@@]1(C)CC[C@H](O)C(C)(C)[C@@H]1CC3)C(C)C [Tumulosic acid] | 105.9 ± 2.1 % of Control | 0.5 h | 99.4 ± 2.3 % of Control | 700 ng·h/mL | 200 ng/mL and 411 nM | half-life ([2]; rat, in vivo, po, 2 g/kg): 4.66 h
N#CC(O)c1ccccc1 (stereo not shown) [Mandelonitrile] | 99.7 ± 0.6 % of Control |  | 104.6 ± 1.2 % of Control |  |  | AUC(0-t) [2, 7]: 251 ng·h/mL; Cmax [2, 8]: 165 ng/mL and 1.24 µM; Tmax [2, 10]: 1 h
C=C(CC[C@@H](C(=O)O)[C@H]1[C@H](O)C[C@@]2(C)C3=C(CC[C@]12C)[C@@]1(C)CC[C@H](OC(C)=O)C(C)(C)[C@@H]1CC3)C(C)C [Pachymic acid] |  | 4 h |  | 5.29 ng·h/mL | 1.21 ng/mL and 2 nM | 
O=C(O)/C=C/c1ccccc1 [(E)-Cinnamic acid] | 108.7 ± 2.2 % of Control |  | 104.3 ± 2.3 % of Control |  |  | 
C[C@@]12C[C@@]3(O)O[C@@H](O1)[C@]1(COC(=O)c4ccccc4)[C@H]3C[C@@]12O[C@@H]1O[C@H](CO)[C@@H](O)[C@H](O)[C@H]1O [Paeoniflorin] | 100.2 ± 1.4 % of Control |  | 92.7 ± 0.9 % of Control | 299 ng·h/mL | 80.2 ng/mL and 167 nM | Tmax [2, 11]: 0.5 h; half-life ([2]; rat, in vivo, po, 2 g/kg): 2.72 h
C=C(CC[C@@H](C(=O)O)[C@H]1[C@H](O)C[C@@]2(C)C3=CC[C@H]4C(C)(C)[C@@H](O)CC[C@]4(C)C3=CC[C@]12C)C(C)C [Dehydrotumulosic acid] | 106.0 ± 0.4 % of Control |  | 97.4 ± 3.1 % of Control |  |  | AUC(0-t) ([2]; rat plasma, single oral KBGY 2 g/kg, read-out: AUC0–last): 39.5 ng·h/mL; Cmax ([2]; rat plasma, single oral KBGY 2 g/kg, read-out: Cmax): 15.5 ng/mL and 32 nM; half-life ([2]; rat plasma, single oral KBGY 2 g/kg, read-out: t1/2 (converted)): 3.81 h; Tmax ([2]; rat plasma, single oral KBGY 2 g/kg, read-out: tmax): 0.5 h
O=C1O[C@H]([C@@H](O)CO)C(O)=C1O [(+)-Ascorbic acid, reference compound] |  |  |  |  |  | Antioxidant Activity (% of Control) ROS Scavenge ([1]; 114 μmol/L, reference agent): 14.5 ± 0.6 % of Control and 20.2 ± 0.6 % of Control
